# From ChEMBL document CHEMBL3822415, “Toward the Validation of Maternal Embryonic Leucine Zipper Kinase: Discovery, Optimization of Highly Potent and Selective Inhibitors, and Preliminary Biology Insight” (J Med Chem, 2016)
# How the values were obtained:
# [1] = target: T1, Maternal embryonic leucine zipper kinase (Homo sapiens, UniProt Q14680); test: Inhibition of MELK catalytic domain (unknown origin) preincubated for 20 mins followed by addition of KinEASE STK S1 peptide as substrate in presence of 20 uM ATP measured after 20 mins by time-resolved fluorescence assay
# [2] = target: T1, Maternal embryonic leucine zipper kinase; test: Inhibition of MELK catalytic domain (unknown origin) preincubated for 20 mins followed by addition of KinEASE STK S1 peptide as substrate in presence of 2 mM ATP measured after 20 mins by time-resolved fluorescence assay
# [3] = target: T2, Platelet-derived growth factor receptor alpha (Homo sapiens, UniProt P16234); test: Inhibition of PDGFR-alpha (unknown origin)
# [4] = target: Mitogen-activated protein kinase kinase kinase kinase 4 (Homo sapiens, UniProt O95819); test: Inhibition of MAP4K4 (unknown origin)
# [5] = target: T3, Receptor-type tyrosine-protein kinase FLT3 (Homo sapiens, UniProt P36888); test: Inhibition of FLT3 (unknown origin)
# T3 sequence (P36888 whole entry): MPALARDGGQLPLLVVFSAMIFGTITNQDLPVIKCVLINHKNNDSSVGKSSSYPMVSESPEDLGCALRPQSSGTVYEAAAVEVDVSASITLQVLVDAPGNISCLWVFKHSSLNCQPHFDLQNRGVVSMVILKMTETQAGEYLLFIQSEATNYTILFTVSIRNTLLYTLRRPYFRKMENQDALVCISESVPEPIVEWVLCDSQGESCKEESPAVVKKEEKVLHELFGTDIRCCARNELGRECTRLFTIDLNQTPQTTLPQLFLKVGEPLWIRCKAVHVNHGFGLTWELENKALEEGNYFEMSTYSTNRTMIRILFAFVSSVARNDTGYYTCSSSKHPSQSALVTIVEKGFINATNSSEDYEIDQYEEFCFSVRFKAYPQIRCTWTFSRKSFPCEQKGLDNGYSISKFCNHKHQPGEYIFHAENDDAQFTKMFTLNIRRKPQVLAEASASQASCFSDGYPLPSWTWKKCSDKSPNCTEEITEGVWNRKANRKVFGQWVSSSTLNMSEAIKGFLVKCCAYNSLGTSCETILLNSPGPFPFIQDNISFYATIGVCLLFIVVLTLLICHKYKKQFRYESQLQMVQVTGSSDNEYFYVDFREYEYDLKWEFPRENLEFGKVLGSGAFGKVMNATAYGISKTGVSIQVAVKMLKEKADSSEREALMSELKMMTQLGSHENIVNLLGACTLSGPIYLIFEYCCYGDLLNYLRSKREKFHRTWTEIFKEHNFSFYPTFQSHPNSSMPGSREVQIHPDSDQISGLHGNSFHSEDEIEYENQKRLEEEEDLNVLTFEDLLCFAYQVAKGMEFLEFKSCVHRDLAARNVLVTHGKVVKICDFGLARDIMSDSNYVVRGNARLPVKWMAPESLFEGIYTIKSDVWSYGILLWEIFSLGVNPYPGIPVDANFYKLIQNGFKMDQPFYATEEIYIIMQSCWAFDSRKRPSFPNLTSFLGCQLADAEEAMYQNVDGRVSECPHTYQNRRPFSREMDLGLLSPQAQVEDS
# MCF7 = test: Antiproliferative activity against MELK-independent ER-positive human MCF7 cells assessed as reduction in cell viability after 7 days by CellTiter-Glo assay; conditions: MCF7, 168 h
# MDA-MB-468 = test: Antiproliferative activity against MELK-dependent human MDA-MB-468 cells assessed as reduction in cell viability after 7 days by CellTiter-Glo assay; conditions: MDA-MB-468, 168 h
# Plasma [6] = test: Metabolic stability in mouse plasma measured after 4 hrs; type: ADME, cell-free
# [7] = Half life of the compound; type: physicochemical
# [8] = Clearance in C57BL/6 mouse at 1 mg/kg, iv by LC-MS/MS analysis; type: ADME, organism-based; conditions: in vivo
# [9] = target: T4, Serine/threonine-protein kinase haspin (Homo sapiens, UniProt Q8TF76); test: Inhibition of partial-length human wild type HASPIN expressed in mammalian expression system by KINOMEscan assay
# T4 sequence (Q8TF76 whole entry): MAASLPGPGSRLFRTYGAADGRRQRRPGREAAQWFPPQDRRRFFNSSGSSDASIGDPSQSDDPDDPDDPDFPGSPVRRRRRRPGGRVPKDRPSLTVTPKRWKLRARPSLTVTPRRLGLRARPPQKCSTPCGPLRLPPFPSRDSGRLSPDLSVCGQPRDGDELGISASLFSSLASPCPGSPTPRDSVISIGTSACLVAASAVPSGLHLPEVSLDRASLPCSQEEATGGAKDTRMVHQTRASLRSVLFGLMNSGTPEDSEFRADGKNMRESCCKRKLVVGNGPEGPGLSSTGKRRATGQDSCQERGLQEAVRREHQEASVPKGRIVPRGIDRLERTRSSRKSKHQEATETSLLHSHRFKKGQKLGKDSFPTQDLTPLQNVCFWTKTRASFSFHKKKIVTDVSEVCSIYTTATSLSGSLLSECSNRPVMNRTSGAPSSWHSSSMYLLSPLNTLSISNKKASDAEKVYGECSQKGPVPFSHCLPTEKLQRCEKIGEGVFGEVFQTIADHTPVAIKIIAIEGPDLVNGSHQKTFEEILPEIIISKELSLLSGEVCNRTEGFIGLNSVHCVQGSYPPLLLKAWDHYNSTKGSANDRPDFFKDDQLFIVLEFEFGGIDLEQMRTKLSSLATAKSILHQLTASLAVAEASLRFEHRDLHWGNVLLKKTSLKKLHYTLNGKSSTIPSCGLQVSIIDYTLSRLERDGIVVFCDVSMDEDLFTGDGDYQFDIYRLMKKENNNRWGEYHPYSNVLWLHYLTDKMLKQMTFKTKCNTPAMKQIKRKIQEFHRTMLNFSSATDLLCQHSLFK
# [10] = Tmax in C57BL/6 mouse at 10 mg/kg, po by LC-MS/MS analysis; type: ADME, organism-based; conditions: in vivo
# [11] = target: T1, Maternal embryonic leucine zipper kinase; test: Binding affinity to MELK (unknown origin) expressed in Escherichia coli by SPR analysis
# [12] = AUC (0 to 7 hrs) in C57BL/6 mouse at 1 mg/kg, iv by LC-MS/MS analysis; type: ADME, organism-based; parameters: time < 7 hr, dose 1 mg/kg, route intravenous; conditions: in vivo
# [13] = Apparent permeability across apical to basolateral side in human Caco2 cells; type: ADME, cell-based; conditions: Caco-2
# [14] = Solubility of the compound at pH 6.8; type: physicochemical; conditions: buffer
# [15] = target: Mast/stem cell growth factor receptor Kit (Homo sapiens, UniProt P10721, A829P); test: Inhibition of partial-length human KIT A829P mutant expressed in mammalian expression system by KINOMEscan assay
# [16] = target: T1, Maternal embryonic leucine zipper kinase; test: Inhibition of full-length MELK (unknown origin) preincubated for 20 mins followed by addition of KinEASE STK S1 peptide as substrate in presence of 20 uM ATP measured after 20 mins by time-resolved fluorescence assay
# [17] = Oral bioavailability in C57BL/6 mouse at 10 mg/kg by LC-MS/MS analysis; type: ADME, organism-based; conditions: in vivo
# [18] = Tmax in C57BL/6 mouse at 30 mg/kg, sc by LC-MS/MS analysis; type: ADME, organism-based; conditions: in vivo
# [19] = AUC (0 to 7 hrs) in C57BL/6 mouse at 10 mg/kg, po by LC-MS/MS analysis; type: ADME, organism-based; parameters: time < 7 hr, dose 10 mg/kg, route oral; conditions: in vivo
# [20] = AUC (0 to 7 hrs) in C57BL/6 mouse at 30 mg/kg, sc by LC-MS/MS analysis; type: ADME, organism-based; parameters: dose 30 mg/kg, time < 7 hr, route subcutaneous; conditions: in vivo
# [21] = Volume of distribution at steady state in C57BL/6 mouse at 1 mg/kg, iv by LC-MS/MS analysis; type: ADME, organism-based; conditions: in vivo, read-out: Vdss
# [22] = Cmax in C57BL/6 mouse at 30 mg/kg, sc by LC-MS/MS analysis; type: ADME, organism-based; parameters: dose 30 mg/kg, route subcutaneous; conditions: in vivo
# [23] = Extraction ratio in mouse microsomes; type: ADME, Microsome
# Plasma [24] = test: Drug uptake in plasma of athymic nude mouse at 120 to 240 mg/kg, sc qd; type: ADME, organism-based; conditions: in vivo
# [25] = target: T2, Platelet-derived growth factor receptor alpha; test: Inhibition of partial-length human wild type PDGFR-alpha expressed in mammalian expression system by KINOMEscan assay
# Plasma [26] = test: Drug uptake in plasma of athymic nude mouse at 120 mg/kg, sc bid; type: ADME, organism-based; conditions: in vivo
# [27] = target: Receptor-type tyrosine-protein kinase FLT3 (Homo sapiens, UniProt P36888, ITD); test: Inhibition of partial-length human FLT3 ITD mutant expressed in bacterial expression system by KINOMEscan assay
# [28] = Cmax in C57BL/6 mouse at 10 mg/kg, po by LC-MS/MS analysis; type: ADME, organism-based; parameters: dose 10 mg/kg, route oral; conditions: in vivo
# [29] = AUC (0 to 7 hrs) in C57BL/6 mouse at 5 mg/kg, po by LC-MS/MS analysis; type: ADME, organism-based; parameters: dose 5 mg/kg, time < 7 hr, route oral; conditions: in vivo
# [30] = Tmax in C57BL/6 mouse at 5 mg/kg, po by LC-MS/MS analysis; type: ADME, organism-based; conditions: in vivo
# [31] = Oral bioavailability in C57BL/6 mouse at 5 mg/kg by LC-MS/MS analysis; type: ADME, organism-based; conditions: in vivo
# [32] = Cmax in C57BL/6 mouse at 5 mg/kg, po by LC-MS/MS analysis; type: ADME, organism-based; parameters: dose 5 mg/kg, route oral; conditions: in vivo
# T1 sequence (Q14680 whole entry, the tested form may be a part): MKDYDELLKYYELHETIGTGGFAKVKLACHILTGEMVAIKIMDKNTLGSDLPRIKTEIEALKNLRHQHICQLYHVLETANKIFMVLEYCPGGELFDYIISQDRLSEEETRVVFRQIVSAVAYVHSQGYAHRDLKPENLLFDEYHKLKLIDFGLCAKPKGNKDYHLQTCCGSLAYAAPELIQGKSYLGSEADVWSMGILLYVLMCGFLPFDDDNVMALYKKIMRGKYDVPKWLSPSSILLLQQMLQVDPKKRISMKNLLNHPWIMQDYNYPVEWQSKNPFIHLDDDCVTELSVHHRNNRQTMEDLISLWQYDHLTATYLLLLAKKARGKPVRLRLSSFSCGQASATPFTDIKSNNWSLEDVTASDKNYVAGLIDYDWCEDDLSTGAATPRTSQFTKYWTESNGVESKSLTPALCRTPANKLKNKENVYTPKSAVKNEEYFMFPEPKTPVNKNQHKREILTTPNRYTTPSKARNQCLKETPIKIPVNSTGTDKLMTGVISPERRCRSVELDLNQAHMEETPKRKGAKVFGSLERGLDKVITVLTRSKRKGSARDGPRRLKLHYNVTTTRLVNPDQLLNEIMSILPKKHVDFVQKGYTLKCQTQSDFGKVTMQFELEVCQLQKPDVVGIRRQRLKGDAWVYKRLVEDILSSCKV
# T2 sequence (P16234 whole entry): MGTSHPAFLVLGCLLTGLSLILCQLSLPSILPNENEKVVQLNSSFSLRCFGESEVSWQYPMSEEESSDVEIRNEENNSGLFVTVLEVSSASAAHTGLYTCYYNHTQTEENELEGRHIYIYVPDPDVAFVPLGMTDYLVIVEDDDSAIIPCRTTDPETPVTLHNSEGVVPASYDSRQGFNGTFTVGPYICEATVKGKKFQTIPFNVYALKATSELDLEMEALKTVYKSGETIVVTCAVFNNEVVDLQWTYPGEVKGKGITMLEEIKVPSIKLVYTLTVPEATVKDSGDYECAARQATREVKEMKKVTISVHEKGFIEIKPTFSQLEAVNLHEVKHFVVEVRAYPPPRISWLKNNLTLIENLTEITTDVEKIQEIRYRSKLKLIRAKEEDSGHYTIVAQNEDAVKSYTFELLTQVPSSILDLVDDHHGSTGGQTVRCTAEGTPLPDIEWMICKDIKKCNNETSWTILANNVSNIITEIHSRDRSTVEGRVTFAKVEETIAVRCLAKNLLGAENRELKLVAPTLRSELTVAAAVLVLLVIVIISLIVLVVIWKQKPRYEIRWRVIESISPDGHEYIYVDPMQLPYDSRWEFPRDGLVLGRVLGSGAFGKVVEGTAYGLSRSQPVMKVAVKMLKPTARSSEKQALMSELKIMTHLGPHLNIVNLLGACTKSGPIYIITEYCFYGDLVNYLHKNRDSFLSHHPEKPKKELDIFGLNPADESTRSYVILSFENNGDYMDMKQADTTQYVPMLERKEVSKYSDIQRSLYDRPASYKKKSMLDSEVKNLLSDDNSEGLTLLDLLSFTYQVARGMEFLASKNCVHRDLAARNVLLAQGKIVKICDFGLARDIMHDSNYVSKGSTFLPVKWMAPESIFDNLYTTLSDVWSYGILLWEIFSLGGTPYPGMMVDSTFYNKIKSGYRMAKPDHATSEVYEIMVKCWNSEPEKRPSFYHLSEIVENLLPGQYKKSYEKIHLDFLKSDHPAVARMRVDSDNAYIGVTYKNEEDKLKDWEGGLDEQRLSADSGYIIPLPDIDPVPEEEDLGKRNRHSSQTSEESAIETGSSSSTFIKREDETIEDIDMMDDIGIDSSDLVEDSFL
# Sequence of Mast/stem cell growth factor receptor Kit (P10721 26-976 A829P limits assumed): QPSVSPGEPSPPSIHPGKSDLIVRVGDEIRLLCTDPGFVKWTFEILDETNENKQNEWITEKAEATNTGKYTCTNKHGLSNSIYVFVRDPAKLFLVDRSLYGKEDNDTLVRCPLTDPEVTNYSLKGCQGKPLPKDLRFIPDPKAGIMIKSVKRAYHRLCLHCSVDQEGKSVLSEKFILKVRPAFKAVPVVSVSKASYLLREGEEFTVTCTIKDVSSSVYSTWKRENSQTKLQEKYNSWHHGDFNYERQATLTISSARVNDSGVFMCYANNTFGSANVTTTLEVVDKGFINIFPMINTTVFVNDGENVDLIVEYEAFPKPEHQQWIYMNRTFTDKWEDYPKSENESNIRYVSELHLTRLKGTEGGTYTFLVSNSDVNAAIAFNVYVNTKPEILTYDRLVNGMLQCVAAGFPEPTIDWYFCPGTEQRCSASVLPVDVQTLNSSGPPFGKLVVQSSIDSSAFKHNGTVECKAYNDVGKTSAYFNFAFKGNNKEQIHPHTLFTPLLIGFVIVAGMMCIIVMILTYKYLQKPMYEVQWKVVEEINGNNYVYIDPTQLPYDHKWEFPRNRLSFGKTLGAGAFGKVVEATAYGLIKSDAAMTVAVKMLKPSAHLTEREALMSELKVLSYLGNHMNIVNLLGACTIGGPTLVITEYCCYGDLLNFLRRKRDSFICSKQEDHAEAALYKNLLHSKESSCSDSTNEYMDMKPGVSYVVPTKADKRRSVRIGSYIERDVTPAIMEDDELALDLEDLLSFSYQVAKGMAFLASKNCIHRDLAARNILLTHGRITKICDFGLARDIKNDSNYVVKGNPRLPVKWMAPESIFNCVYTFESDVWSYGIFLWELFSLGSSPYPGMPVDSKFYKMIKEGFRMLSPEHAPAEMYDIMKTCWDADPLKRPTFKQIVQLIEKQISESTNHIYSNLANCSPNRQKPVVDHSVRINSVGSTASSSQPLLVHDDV
# Sequence of Mitogen-activated protein kinase kinase kinase kinase 4 (O95819 whole entry): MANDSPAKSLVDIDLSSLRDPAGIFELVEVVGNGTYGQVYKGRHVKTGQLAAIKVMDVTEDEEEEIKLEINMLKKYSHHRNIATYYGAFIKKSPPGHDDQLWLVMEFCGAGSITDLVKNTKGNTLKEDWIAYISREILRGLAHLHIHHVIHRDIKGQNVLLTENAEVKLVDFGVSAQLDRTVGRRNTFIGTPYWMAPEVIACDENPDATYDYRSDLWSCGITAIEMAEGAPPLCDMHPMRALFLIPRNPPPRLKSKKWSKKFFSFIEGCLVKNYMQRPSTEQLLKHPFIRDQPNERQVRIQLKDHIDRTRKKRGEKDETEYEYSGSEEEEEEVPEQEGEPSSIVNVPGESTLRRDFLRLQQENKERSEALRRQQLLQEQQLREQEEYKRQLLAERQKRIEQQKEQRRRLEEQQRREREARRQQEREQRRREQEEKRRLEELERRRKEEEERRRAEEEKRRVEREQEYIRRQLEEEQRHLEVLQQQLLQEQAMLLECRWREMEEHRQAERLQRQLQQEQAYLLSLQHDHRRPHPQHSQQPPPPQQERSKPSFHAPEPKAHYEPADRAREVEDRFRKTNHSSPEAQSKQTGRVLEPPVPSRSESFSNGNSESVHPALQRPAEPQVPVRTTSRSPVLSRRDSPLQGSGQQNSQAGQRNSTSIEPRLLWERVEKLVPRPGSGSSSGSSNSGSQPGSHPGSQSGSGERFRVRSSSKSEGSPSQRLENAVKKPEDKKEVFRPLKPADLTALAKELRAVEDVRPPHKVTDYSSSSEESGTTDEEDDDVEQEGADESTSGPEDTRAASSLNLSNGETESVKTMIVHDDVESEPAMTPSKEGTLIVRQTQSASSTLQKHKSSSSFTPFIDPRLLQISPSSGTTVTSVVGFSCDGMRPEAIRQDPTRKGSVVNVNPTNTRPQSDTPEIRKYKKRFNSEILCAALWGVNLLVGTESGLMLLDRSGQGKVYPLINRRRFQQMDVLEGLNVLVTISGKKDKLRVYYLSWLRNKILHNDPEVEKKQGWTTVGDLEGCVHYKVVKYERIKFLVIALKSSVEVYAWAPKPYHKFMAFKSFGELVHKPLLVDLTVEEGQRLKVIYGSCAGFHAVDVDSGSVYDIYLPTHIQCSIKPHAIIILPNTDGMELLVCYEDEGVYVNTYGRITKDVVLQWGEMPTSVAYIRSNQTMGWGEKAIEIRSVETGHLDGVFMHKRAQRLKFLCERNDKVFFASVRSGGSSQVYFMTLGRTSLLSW
compound,measurement,setting,value
CN1CCN(c2ccc(-n3cc(-c4ccncc4OC4CCNCC4)cn3)cc2)CC1,IC50,[1],6 nM
same,IC50,[2],260 nM
CS(=O)(=O)c1ccc(-n2cc(-c3ccccc3)cn2)cc1,IC50,[1],> 20000 nM
Fc1ccccc1-n1cc(-c2ccncc2OCC2CCNCC2)cn1,IC50,[1],13 nM
c1cc(-c2cnn(-c3ccc(N4CCOCC4)cc3)c2)c(OCC2CCNCC2)cn1,IC50,[1],6 nM
same,IC50,[2],210 nM
O=C(NCc1ccccn1)c1ccc(-n2cc(-c3ccncc3)cn2)cc1,IC50,[3],< 5000 nM
same,IC50,[1],180 nM
same,IC50,[4],< 5000 nM
same,IC50,[5],< 5000 nM
same,IC50,[2],18800 nM
CN1CCN(c2ccc(-n3cc(-c4ccncc4)cn3)cc2)CC1,IC50,[1],80 nM
same,IC50,[2],5000 nM
COc1cnccc1-c1cnn(-c2ccc(N3CCN(C)CC3)cc2)c1,IC50,[1],64 nM
CN1CCN(c2ccc(-n3cc(-c4ccncc4OC4CCCCC4)cn3)cc2)CC1,IC50,[1],4 nM
same,IC50,[2],150 nM
CC(C)COc1cnccc1-c1cnn(-c2ccc(N3CCN(C)CC3)cc2)c1,IC50,[1],9 nM
same,IC50,[2],410 nM
CS(=O)(=O)c1ccc(-n2cc(-c3ccncc3)cn2)cc1,IC50,[1],400 nM
CN1CCN(c2ccc(-n3cc(-c4ccncc4OC[C@H]4CC[C@H](N)CC4)cn3)cc2)CC1,IC50,[1],1 nM
same,IC50,MCF7,1200 nM
same,IC50,MDA-MB-468,60 nM
same,IC50,[2],57 nM
CN1CCN(c2ccc(-n3cc(-c4ccncc4OCC4CCNCC4)cn3)cc2)CC1,Stability,Plasma [6],Stable
same,half-life,[7],1 min
same,clearance,[8],114 mL/min/kg
same,IC50,[9],190 nM
same,Tmax,[10],30 min
same,IC50,[11],2 nM
same,AUC(0-t) at 7 h,[12],0.23 µM·h
same,Papp A→B,[13],14 ×10⁻⁶ cm/s
same,solubility,[14],220 µg/mL
same,IC50,[15],> 10000 nM
same,IC50,[16],5 nM
same,bioavailability,[17],3.6%
same,Tmax,[18],24 min
same,AUC(0-t) at 7 h,[19],0.0832 µM·h
same,AUC(0-t) at 7 h,[20],18.9 µM·h
same,Vd,[21],40.8 L/kg
same,Cmax,[22],6560 nM
same,IC50,[1],2 nM
same,IC50,MCF7,3680 nM
same,hepatic extraction ratio,[23],0.75
same,Drug uptake,Plasma [24],Active
same,IC50,[25],420 nM
same,Drug uptake,Plasma [26],Active
same,IC50,[27],180 nM
same,Cmax,[28],34 nM
same,IC50,MDA-MB-468,110 nM
same,IC50,[2],140 nM
c1ccc(-n2cc(-c3ccncc3OCC3CCNCC3)cn2)cc1,AUC(0-t) at 7 h,[29],3.44 µM·h
same,Tmax,[30],102 min
same,IC50,[1],36 nM
same,bioavailability,[31],43%
same,Cmax,[32],1030 nM
CN1CCN(c2ccc(-n3cc(-c4ccncc4OCc4ccncc4)cn3)cc2)CC1,IC50,[1],25 nM
same,IC50,[2],1440 nM
CN1CCN(c2ccc(-n3cc(-c4ccncc4F)cn3)cc2)CC1,IC50,[1],70 nM
same,IC50,[2],5000 nM
CS(=O)(=O)c1ccc(-n2cc(-c3ccc(O)cc3)cn2)cc1,IC50,[1],520 nM
CN1CCN(c2ccc(-c3cc(-c4ccccc4)n[nH]3)cc2)CC1,IC50,[1],670 nM
Fc1cc(N2CCOCC2)ccc1-n1cc(-c2ccncc2OCC2CCNCC2)cn1,IC50,[1],0.3 nM
